Measured values taken from patent US10227331B2 (priority 2015, dated 2019).

Tests used:
[1] = system: Escherichia coli expressing NDM-1 (CLB30005, CLB30016); type: cell-based; conditions: with imipenem 1 μg/ml, 95% inhibition of bacterial growth
In short: (§1)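 Restoration of imipenem susceptibility (1 μg/ml imipenem) was judged by absorbance after 22–24 h at 35° C. Test compound was added to bacteria suspended 1:100 in 1.1× CAMHB from overnight blood-agar cultures.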

[2] = system: Serratia marcescens expressing IMP-1 (CL5741); type: cell-based; conditions: with imipenem 1 μg/ml, 95% inhibition of bacterial growth
In short: as §1

[3] = system: Klebsiella pneumoniae expressing VIM-1 (IHMA599644); type: cell-based; conditions: with imipenem 1 μg/ml, 95% inhibition of bacterial growth
In short: as §1

[4] = molecular target: IMP-1 (Serratia marcescens, UniProt P52699); experiment: biochemical; type: biochemical; conditions: CCF2-FA substrate, 2 hours at 25° C; read-out: IMP-1 IC50
In short: (§2)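 IC50 values derive from 4-parameter fits of percent inhibition against inhibitor concentration on semi-log axes. Activity was monitored by fluorescence with the CCF2-FA substrate after a 2-hour, 25° C incubation of compound, enzyme and substrate.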

[5] = molecular target: NDM-1 (Klebsiella pneumoniae, UniProt C7C422); experiment: biochemical; type: biochemical; conditions: CCF2-FA substrate, 2 hours at 25° C; read-out: NDM-1 IC50
In short: as §2

[6] = system: P. aeruginosa expressing IMP-1, efflux− (MB9799); experiment: Efflux: concentration of MBL inhibitor which restores susceptibility to imipenem; type: cell-based, Pseudomonas aeruginosa; conditions: imipenem at 2 μg/mL, in the presence of a class A, C, D serine β-lactamase inhibitor closely related to relebactam
Source text: (§3) The strain background is Pseudomonas aeruginosa PAO1.

[7] = system: P. aeruginosa expressing IMP-1, efflux+ (MB9798); type: cell-based, Pseudomonas aeruginosa; conditions: for P. aeruginosa expressing IMP-1, efflux+ (MB9798) MITC95: imipenem at 2 μg/mL, in the presence of a class A, C, D serine β-lactamase inhibitor closely related to relebactam; for Efflux ratio: ratio MITC95 PA_9798/MITC95 PA_9799
Source text: as §3

[8] = molecular target: VIM-1 (Pseudomonas aeruginosa (strain ATCC 15692 / DSM 22644 / CIP 104116 / JCM 14847 / LMG 12228 / 1C / PRS 101 / PAO1), UniProt A0A0F7KYQ8); experiment: biochemical; conditions: CCF2-FA substrate, 2 hours at 25° C
In short: as §2

Sequence of IMP-1 (P52699 whole entry, looked up, species assumed): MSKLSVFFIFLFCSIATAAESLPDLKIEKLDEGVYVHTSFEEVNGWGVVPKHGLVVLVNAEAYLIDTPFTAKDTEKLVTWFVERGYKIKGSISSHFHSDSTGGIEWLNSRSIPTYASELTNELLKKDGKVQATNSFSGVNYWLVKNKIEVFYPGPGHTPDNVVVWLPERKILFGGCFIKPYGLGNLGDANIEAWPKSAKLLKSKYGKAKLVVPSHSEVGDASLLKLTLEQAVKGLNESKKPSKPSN
Sequence of NDM-1 (C7C422 whole entry, looked up, species assumed): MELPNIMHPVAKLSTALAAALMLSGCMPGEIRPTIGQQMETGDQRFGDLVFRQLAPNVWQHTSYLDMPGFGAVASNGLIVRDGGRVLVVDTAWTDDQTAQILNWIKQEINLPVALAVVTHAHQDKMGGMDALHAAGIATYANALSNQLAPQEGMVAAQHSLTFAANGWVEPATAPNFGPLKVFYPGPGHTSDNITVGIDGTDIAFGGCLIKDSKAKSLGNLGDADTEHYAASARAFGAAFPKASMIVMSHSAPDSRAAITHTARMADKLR

Compound | Escherichia coli expressing NDM-1 (CLB30016) MITC95 [1] | Serratia marcescens expressing IMP-1 (CL5741) MITC95 [2] | Klebsiella pneumoniae expressing VIM-1 (IHMA599644) MITC95 [3] | IC50 [4] | IC50 [5] | P. aeruginosa expressing IMP-1, efflux− (MB9799) MITC95 [6] | P. aeruginosa expressing IMP-1, efflux+ (MB9798) MITC95 [7] | Efflux ratio [7] | IC50 [8] | Escherichia coli MITC95 ([1]; NDM-1 (CLB30016)) | Serratia marcescens MITC95 ([2]; IMP-1 (CL5741)) | Klebsiella pneumoniae MITC95 ([3]; VIM-1 (IHMA599644))
NCCS(=O)(=O)c1ccc(-c2ccc3[nH]ncc3c2)c(-c2nnn[nH]2)c1S(N)(=O)=O.O=C(O)C(F)(F)F [Example 167, 2-((4-(1H-indazol-5-yl)-2-sulfamoyl-3-(1H-tetrazol-5-yl)phenyl)sulfonyl)ethanaminium 2,2,2-trifluoroacetate] | 6.25 µM | 3.125 µM | 3.125 µM | 1.07 nM | 0.882 nM | 0.7813 µM | 6.25 µM | 8.00 | 0.343 nM | – | – | –
NS(=O)(=O)c1c(S(=O)(=O)C2CNC2)ccc(-c2cccc3cn[nH]c23)c1-c1nnn[nH]1 [Example 297, 6-(azetidin-3-ylsulfonyl)-3-(1H-indazol-7-yl)-2-(1H-tetrazol-5-yl)benzenesulfonamide] | – | – | – | 0.596 nM | 0.217 nM | 0.7813 µM | 1.563 µM | 2.00 | 0.282 nM | 1.563 µM | 1.563 µM | 3.125 µM
NCCS(=O)(=O)c1ccc(-c2cccc3nc(N)[nH]c23)c(-c2nn[nH]n2)c1S(N)(=O)=O [Example 70, 3-(2-amino-3H-benzo[d]imidazol-4-yl)-6-(2-aminoethylsulfonyl)-2-(2H-tetrazol-5-yl)benzenesulfonamide] | 0.25 µM | 0.6406 µM | 0.8906 µM | 0.796 nM | 0.251 nM | 0.4453 µM | 0.4453 µM | 1.00 | 0.37 nM | – | – | –
NS(=O)(=O)c1c(S(=O)(=O)C2CNC2)ccc(-c2cccc3ccnn23)c1-c1nnn[nH]1.O=C(O)C(F)(F)F [Example 102, 3-((4-(pyrazolo[1,5-a]pyridin-7-yl)-2-sulfamoyl-3-(1H-tetrazol-5-yl)phenyl)sulfonyl)azetidin-1-ium 2,2,2-trifluoroacetate] | 3.125 µM | 3.125 µM | 3.125 µM | 0.909 nM | 0.407 nM | 1.563 µM | 3.125 µM | 2.00 | 0.457 nM | – | – | –
NCCS(=O)(=O)c1ccc(-c2cncc(CO)c2)c(-c2nnn[nH]2)c1S(N)(=O)=O.O=C(O)C(F)(F)F [Example 143, 2-((4-(5-(hydroxymethyl)pyridin-3-yl)-2-sulfamoyl-3-(1H-tetrazol-5-yl)phenyl)sulfonyl)ethanaminium 2,2,2-trifluoroacetate] | 1.563 µM | 3.125 µM | 3.125 µM | 8.83 nM | 11.2 nM | 1.563 µM | 12.5 µM | 8.00 | 2.02 nM | – | – | –
NCCS(=O)(=O)c1ccc(-c2ccc(CO)nc2)c(-c2nnn[nH]2)c1S(N)(=O)=O.O=C(O)C(F)(F)F [Example 145, 2-((4-(6-(hydroxymethyl)pyridin-3-yl)-2-sulfamoyl-3-(1H-tetrazol-5-yl)phenyl)sulfonyl)ethanaminium 2,2,2-trifluoroacetate] | 1.563 µM | 3.125 µM | 6.25 µM | 4.84 nM | 4.31 nM | 1.563 µM | 12.5 µM | 8.00 | 1.25 nM | – | – | –
